Data taken from patent publication US4877807A, “5-phenyl-1,2,3a,4,5,9b-hexahydro-3H-benz(e)indotes preparation and use thereof as drugs” (BASF Aktiengesellschaft, priority 1987, dated 1989).
Counter-ions that a name gives are not always drawn.

Assays:
[1] = tested on: tonic spasms induced by electroshock in female mice (NMRI strain); test: Inhibition of electroshock-induced tonic spasms in mice (anticonvulsive action); format: in vivo; conditions: oral; for ED50: Mus musculus, 1 h, 60 minutes before electroshock, dose inhibiting tonic spasms in 50% of the animals, n/dose=8, read-out: Anticonvulsive action ED 50
Procedure: The anticonvulsive action was measured on female mice (NMRI strain) having a weight of 22-26 g. Tonic spasms were induced by electroshock via ear electrodes. Stimulus data: a series of square-wave pulses 4.64 ms in duration and 14.7 mA in amplitude; frequency 100 Hz; duration of series 0.2 sec.
The electroshock was administered 60 minutes after the oral administration of the test compounds, and the appearance of tonic spasms was counted. n/dose=8. The ratios between the effectiveness (% protected animals) and log dose were calculated by probit analysis. ED 50 is the dose which inhibits the tonic spsms in 50% of the animals.

[2] = tested on: reserpine-inducd hypothermia in male mice (NMRI strain); test: Inhibition of reserpine-induced hypothermia in mice (antidepressive action); format: in vivo; conditions: oral; for effectiveness higher than that of imipramine, factor: ED 50 relative to imipramine; for ED50: Mus musculus, 60 minutes before reserpine 2.15 mg/kg s.c., dose inhibiting reserpine-induced hypothermia by 50%, read-out: Antidepressive action ED 50
Procedure: The antidepressive activity of the substances according to the invention was studied using the following model:
Antidepressant substances inhibit this hypothermic effect, the degree of inhibition depending on the dose. The test substances were administered orally 60 minutes before the reserpine was administered.
The dose which inhibits reserpine-inducd hypothermia by 50%, ie. ED 50, is determined from the linear regression between log dose (mg/kg) and the relative decrease in the hypothermic effect.

Row | SMILES | ED50 [1] [mg/kg] | effectiveness higher than that of imipramine, factor [2] | ED50 [2] [mg/kg] | anticonvulsive effectiveness compared with phenytoin (in words) [1]
1 | CN1CC[C@@H]2c3ccccc3[C@H](c3ccccc3)C[C@@H]21 [Example 4, (+)-3aS,5S,9bR-3-Methyl-5-phenyl-1,2,3a,4,5,9b-hexahydro-3H-benzo[e]indole] | ~46.4 | about 45 | 0.087 | –
2 | CN(C)CCCN1c2ccccc2CCc2ccccc21 [imipramine, reference compound] | – | – | 3.82 | –
3 | O=C1NC(=O)C(c2ccccc2)(c2ccccc2)N1 [phenytoin, reference compound] | 14.3 | – | – | –
4 | CCN1CC[C@H]2c3ccccc3[C@H](c3ccccc3)C[C@@H]21 (relative stereo) [Example 6, (±)-3aR(S),5R(S),9bR(S)-3-Ethyl-5-phenyl-1,2,3a,4,5,9b-hexahydro-3H-benz[e]indole hydrochloride] | 8.81 | – | 1.61 | equalled or substantially exceeded
5 | CN1CC[C@@H]2c3ccccc3[C@H](c3ccccc3)C[C@@H]21 (relative stereo) [Example 1, (±)-3aS(R),5S(R),9bR(S)-3-Methyl-5-phenyl-1,2,3a,4,5,9b-hexahydro-3H -benz[e]indole hydrochloride] | 1.1 | about 45 | 0.082 | equalled or substantially exceeded
6 | CCCN1CC[C@@H]2c3ccccc3[C@H](c3ccccc3)C[C@@H]21 (relative stereo) [Example 7, (±)-3aS(R),5S(R),9bR(S)-3-n-propyl-5-phenyl-1,2,3a,4,5,9b-hexahydro-3H-benz[e]indole hydrochloride] | 11.9 | – | 0.26 | –
7 | CCN1CC[C@@H]2c3ccccc3[C@H](c3ccccc3)C[C@@H]21 (relative stereo) [Example 5, (±)-3aS(R),5S(R),9bR(S)-3-ethyl-5-phenyl-1,2,3a,4,5,9b-hexahydro-3H-benz[e]indole hydrochloride] | ~100 | – | 0.14 | –
8 | CN1CC[C@H]2c3ccccc3[C@H](c3ccccc3)C[C@@H]21 (relative stereo) [Example 2, (±)-3aR(S),5R(S),9bR(S)-3-Methyl-5-phenyl-1,2,3a,4,5,9b-hexahydro-3H-benz[e]indole] | – | – | 5.01 | –
